The supplement of paper PMC10883282

Key:
Assay in all cases: standardised AUC of viability dose-response curve (72 h) (fraction (0-1)); higher = less growth inhibition (more resistant)
KHOS-240S = tested on: KHOS-240S
In short: (§1)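 After 72 h with 2.5 µl of compound (compound-plate series 10 mM to 0.0002 mM), triplicate wells of sarcoma cell lines in 384-well plates were read with ATPLite, with viability scaled 1 (full) to 0 (none) and fitted with a four-parameter log-logistic model. The values give the standardised area under the dose-response curve in log-dose space from a modified drexplorer computeAUC. A value of 1 means no response and 0 means full response.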

G401 = tested on: G401
In short: as §1

SK-LMS-1 = tested on: SK-LMS-1
In short: as §1

SW1353 = tested on: SW1353
In short: as §1

A204 = tested on: A204
In short: as §1

HT1080 = tested on: HT1080
In short: as §1

SW872 = tested on: SW872
In short: as §1

SK-ES-1 = tested on: SK-ES-1
In short: as §1

MES-SA = tested on: MES-SA
In short: as §1

KHOS-NP = tested on: KHOS-NP
In short: as §1

HS729 = tested on: HS729
In short: as §1

SW684 = tested on: SW684
In short: as §1

RD = tested on: RD
In short: as §1

RD-ES = tested on: RD-ES
In short: as §1

SYO-1 = tested on: SYO-1
In short: as §1

VA-ES-BJ = tested on: VA-ES-BJ
In short: as §1

SW982 = tested on: SW982
In short: as §1

N#CCNC(=O)c1ccc(-c2ccnc(Nc3ccc(N4CCOCC4)cc3)n2)cc1 [MOMELOTINIB]
standardised AUC (KHOS-240S): 0.91
standardised AUC (G401): 0.889
standardised AUC (SK-LMS-1): 0.941
standardised AUC (SW1353): 0.893
standardised AUC (A204): 0.829
standardised AUC (HT1080): 1
standardised AUC (SW872): 0.898
standardised AUC (SK-ES-1): 0.815
standardised AUC (MES-SA): 0.863
standardised AUC (KHOS-NP): 0.979
standardised AUC (HS729): 0.922
standardised AUC (SW684): 0.907
standardised AUC (RD): 0.994
standardised AUC (RD-ES): 0.944
standardised AUC (SYO-1): 0.839
standardised AUC (VA-ES-BJ): 0.964
standardised AUC (SW982): 0.861

Cc1ccc(Nc2nccc(N(C)c3ccc4c(C)n(C)nc4c3)n2)cc1S(N)(=O)=O [PAZOPANIB]
standardised AUC (KHOS-240S): 0.951
standardised AUC (G401): 0.914
standardised AUC (SK-LMS-1): 0.974
standardised AUC (SW1353): 0.98
standardised AUC (A204): 0.699
standardised AUC (HT1080): 0.999
standardised AUC (SW872): 0.984
standardised AUC (SK-ES-1): 0.966
standardised AUC (MES-SA): 0.964
standardised AUC (KHOS-NP): 0.978
standardised AUC (HS729): 0.91
standardised AUC (SW684): 0.99
standardised AUC (RD): 0.997
standardised AUC (RD-ES): 0.988
standardised AUC (SYO-1): 0.78
standardised AUC (VA-ES-BJ): 1
standardised AUC (SW982): 0.987

CCN1C(=O)N(c2c(F)c(OC)cc(OC)c2F)Cc2cnc3[nH]c(CN4CCOCC4)cc3c21 [PEMIGATINIB]
standardised AUC (KHOS-240S): 0.88
standardised AUC (G401): 0.696
standardised AUC (SK-LMS-1): 0.924
standardised AUC (SW1353): 0.861
standardised AUC (A204): 0.685
standardised AUC (HT1080): 0.97
standardised AUC (SW872): 0.946
standardised AUC (SK-ES-1): 0.839
standardised AUC (MES-SA): 0.822
standardised AUC (KHOS-NP): 0.991
standardised AUC (HS729): 0.748
standardised AUC (SW684): 0.951
standardised AUC (RD): 0.938
standardised AUC (RD-ES): 0.942
standardised AUC (SYO-1): 0.804
standardised AUC (VA-ES-BJ): 0.951
standardised AUC (SW982): 0.889

COc1cc(OC)c(/C=C/S(=O)(=O)Cc2ccc(OC)c(NCC(=O)O)c2)c(OC)c1 [RIGOSERTIB]
standardised AUC (KHOS-240S): 0.636
standardised AUC (G401): 0.852
standardised AUC (SK-LMS-1): 0.719
standardised AUC (SW1353): 0.822
standardised AUC (A204): 0.779
standardised AUC (HT1080): 0.707
standardised AUC (SW872): 0.854
standardised AUC (SK-ES-1): 0.584
standardised AUC (MES-SA): 0.681
standardised AUC (KHOS-NP): 0.805
standardised AUC (HS729): 0.882
standardised AUC (SW684): 0.851
standardised AUC (RD): 0.712
standardised AUC (RD-ES): 0.644
standardised AUC (SYO-1): 0.827
standardised AUC (VA-ES-BJ): 0.755
standardised AUC (SW982): 0.748

COCCNc1cc(NC(=O)N2CCCc3cc(CN4CCN(C)CC4=O)c(C=O)nc32)ncc1C#N [ROBLITINIB]
standardised AUC (KHOS-240S): 0.983
standardised AUC (G401): 0.979
standardised AUC (SK-LMS-1): 0.988
standardised AUC (SW1353): 0.995
standardised AUC (A204): 0.963
standardised AUC (HT1080): 0.996
standardised AUC (SW872): 1
standardised AUC (SK-ES-1): 0.976
standardised AUC (MES-SA): 0.975
standardised AUC (KHOS-NP): 0.994
standardised AUC (HS729): 0.971
standardised AUC (SW684): 0.994
standardised AUC (RD): 0.992
standardised AUC (RD-ES): 0.978
standardised AUC (SYO-1): 0.959
standardised AUC (VA-ES-BJ): 0.994
standardised AUC (SW982): 0.997

Cc1cc2cc(Oc3ccnc(Nc4cccc(CS(=O)(=O)NCCN(C)C)c4)n3)ccc2[nH]1 [SULFATINIB]
standardised AUC (KHOS-240S): 0.931
standardised AUC (G401): 0.909
standardised AUC (SK-LMS-1): 0.965
standardised AUC (SW1353): 0.97
standardised AUC (A204): 0.805
standardised AUC (HT1080): 0.99
standardised AUC (SW872): 0.96
standardised AUC (SK-ES-1): 0.955
standardised AUC (MES-SA): 0.95
standardised AUC (KHOS-NP): 0.982
standardised AUC (HS729): 0.874
standardised AUC (SW684): 0.966
standardised AUC (RD): 0.964
standardised AUC (RD-ES): 0.962
standardised AUC (SYO-1): 0.759
standardised AUC (VA-ES-BJ): 0.987
standardised AUC (SW982): 0.924

CCN(CC)CCNC(=O)c1c(C)[nH]c(/C=C2\C(=O)Nc3ccc(F)cc32)c1C [SUNITINIB]
standardised AUC (KHOS-240S): 0.815
standardised AUC (G401): 0.907
standardised AUC (SK-LMS-1): 0.908
standardised AUC (SW1353): 0.855
standardised AUC (A204): 0.558
standardised AUC (HT1080): 0.864
standardised AUC (SW872): 0.813
standardised AUC (SK-ES-1): 0.716
standardised AUC (MES-SA): 0.829
standardised AUC (KHOS-NP): 0.88
standardised AUC (HS729): 0.804
standardised AUC (SW684): 0.876
standardised AUC (RD): 0.836
standardised AUC (RD-ES): 0.755
standardised AUC (SYO-1): 0.648
standardised AUC (VA-ES-BJ): 0.881
standardised AUC (SW982): 0.754

Cn1ncnc1[C@H]1c2n[nH]c(=O)c3cc(F)cc(c23)N[C@@H]1c1ccc(F)cc1 [TALAZOPARIB]
standardised AUC (KHOS-240S): 0.86
standardised AUC (G401): 0.817
standardised AUC (SK-LMS-1): 0.905
standardised AUC (SW1353): 0.836
standardised AUC (A204): 0.79
standardised AUC (HT1080): 0.83
standardised AUC (SW872): 0.826
standardised AUC (SK-ES-1): 0.376
standardised AUC (MES-SA): 0.675
standardised AUC (KHOS-NP): 0.919
standardised AUC (HS729): 0.936
standardised AUC (SW684): 0.956
standardised AUC (RD): 0.832
standardised AUC (RD-ES): 0.433
standardised AUC (SYO-1): 0.48
standardised AUC (VA-ES-BJ): 0.725
standardised AUC (SW982): 0.749

O=c1sn(-c2cccc3ccccc23)c(=O)n1Cc1ccccc1 [TIDEGLUSIB]
standardised AUC (KHOS-240S): 0.983
standardised AUC (G401): 0.951
standardised AUC (SK-LMS-1): 0.99
standardised AUC (SW1353): 0.966
standardised AUC (A204): 0.994
standardised AUC (HT1080): 0.999
standardised AUC (SW872): 0.976
standardised AUC (SK-ES-1): 0.975
standardised AUC (MES-SA): 0.971
standardised AUC (KHOS-NP): 0.99
standardised AUC (HS729): 0.913
standardised AUC (SW684): 0.964
standardised AUC (RD): 0.996
standardised AUC (RD-ES): 0.985
standardised AUC (SYO-1): 0.962
standardised AUC (VA-ES-BJ): 0.972
standardised AUC (SW982): 0.993

O=C1NC(=O)[C@@H](c2cn3c4c(cccc24)CCC3)[C@@H]1c1c[nH]c2ccccc12 [TIVANTINIB]
standardised AUC (KHOS-240S): 0.782
standardised AUC (G401): 0.865
standardised AUC (SK-LMS-1): 0.79
standardised AUC (SW1353): 0.879
standardised AUC (A204): 0.844
standardised AUC (HT1080): 0.796
standardised AUC (SW872): 0.859
standardised AUC (SK-ES-1): 0.718
standardised AUC (MES-SA): 0.754
standardised AUC (KHOS-NP): 0.867
standardised AUC (HS729): 0.896
standardised AUC (SW684): 0.883
standardised AUC (RD): 0.789
standardised AUC (RD-ES): 0.768
standardised AUC (SYO-1): 0.804
standardised AUC (VA-ES-BJ): 0.829
standardised AUC (SW982): 0.792

Cc1[nH]c(/C=C2\C(=O)Nc3ccc(F)cc32)c(C)c1C(=O)NCCN1CCCC1 [TOCERANIB]
standardised AUC (KHOS-240S): 0.841
standardised AUC (G401): 0.923
standardised AUC (SK-LMS-1): 0.891
standardised AUC (SW1353): 0.926
standardised AUC (A204): 0.669
standardised AUC (HT1080): 0.908
standardised AUC (SW872): 0.864
standardised AUC (SK-ES-1): 0.795
standardised AUC (MES-SA): 0.82
standardised AUC (KHOS-NP): 0.931
standardised AUC (HS729): 0.739
standardised AUC (SW684): 0.937
standardised AUC (RD): 0.957
standardised AUC (RD-ES): 0.778
standardised AUC (SYO-1): 0.632
standardised AUC (VA-ES-BJ): 0.918
standardised AUC (SW982): 0.833

CC(C)Oc1ccc(-c2nn([C@@H](C)c3oc4ccc(F)cc4c(=O)c3-c3cccc(F)c3)c3ncnc(N)c23)cc1F [UMBRALISIB]
standardised AUC (KHOS-240S): 0.983
standardised AUC (G401): 0.983
standardised AUC (SK-LMS-1): 0.966
standardised AUC (SW1353): 0.949
standardised AUC (A204): 0.969
standardised AUC (HT1080): 0.984
standardised AUC (SW872): 0.987
standardised AUC (SK-ES-1): 0.985
standardised AUC (MES-SA): 0.989
standardised AUC (KHOS-NP): 0.994
standardised AUC (HS729): 0.939
standardised AUC (SW684): 0.937
standardised AUC (RD): 0.998
standardised AUC (RD-ES): 0.993
standardised AUC (SYO-1): 0.97
standardised AUC (VA-ES-BJ): 0.982
standardised AUC (SW982): 1

CC[C@@H]1CN(C(=O)NCC(F)(F)F)C[C@@H]1c1cnc2cnc3[nH]ccc3n12 [UPADACITINIB]
standardised AUC (KHOS-240S): 0.956
standardised AUC (G401): 0.961
standardised AUC (SK-LMS-1): 0.974
standardised AUC (SW1353): 0.945
standardised AUC (A204): 0.97
standardised AUC (HT1080): 0.976
standardised AUC (SW872): 0.951
standardised AUC (SK-ES-1): 0.988
standardised AUC (MES-SA): 0.977
standardised AUC (KHOS-NP): 0.975
standardised AUC (HS729): 0.915
standardised AUC (SW684): 0.984
standardised AUC (RD): 0.993
standardised AUC (RD-ES): 0.994
standardised AUC (SYO-1): 0.913
standardised AUC (VA-ES-BJ): 0.962
standardised AUC (SW982): 0.979

Clc1ccc(Nc2nnc(Cc3ccncc3)c3ccccc23)cc1 [VATALANIB]
standardised AUC (KHOS-240S): 0.978
standardised AUC (G401): 0.971
standardised AUC (SK-LMS-1): 0.975
standardised AUC (SW1353): 0.979
standardised AUC (A204): 0.864
standardised AUC (HT1080): 1
standardised AUC (SW872): 0.994
standardised AUC (SK-ES-1): 0.998
standardised AUC (MES-SA): 0.998
standardised AUC (KHOS-NP): 1
standardised AUC (HS729): 0.989
standardised AUC (SW684): 0.988
standardised AUC (RD): 0.995
standardised AUC (RD-ES): 0.99
standardised AUC (SYO-1): 0.937
standardised AUC (VA-ES-BJ): 1
standardised AUC (SW982): 0.997
